Drawing on US12264139B2, “Aryl sulfonamides as BLT1 antagonists” (Merck Sharp & Dohme LLC, priority 2015, dated 2025), this text covers EC50 for 19 compounds.

T1 sequence (Q15722 whole entry): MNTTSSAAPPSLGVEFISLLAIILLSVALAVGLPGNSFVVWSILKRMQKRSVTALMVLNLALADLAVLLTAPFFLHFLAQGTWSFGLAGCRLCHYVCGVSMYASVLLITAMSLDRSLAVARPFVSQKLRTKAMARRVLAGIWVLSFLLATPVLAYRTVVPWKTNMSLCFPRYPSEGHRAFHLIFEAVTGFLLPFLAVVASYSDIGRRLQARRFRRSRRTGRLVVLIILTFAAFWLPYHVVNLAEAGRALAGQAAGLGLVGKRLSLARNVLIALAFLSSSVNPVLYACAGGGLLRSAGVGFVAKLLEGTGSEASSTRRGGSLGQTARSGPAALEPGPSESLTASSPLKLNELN

The test addresses T1, human BLT1 receptor (Homo sapiens, UniProt Q15722).
T1 construct: expressed in transfected cells; host or cells: HEK293
As to the kind of experiment: BLT-1 cAMP Assay. Format: cell-based. Conditions: HEK293 cells recombinantly expressing human BLT1; antagonist activity vs forskolin 4 μM and LTB4 2 nM; cAMP (CisBio kit). The method, then: The ability of compounds to antagonize the human BLT1 receptor was determined using a kit to measure changes in intracellular cyclic AMP levels (cAMP dynamic assay kit, Cisbio Cat. No. 62AM4PEC). […] The cell suspension was centrifuged at 200×g for 10 min and then resuspended in fresh assay medium to a density of 2.5×10^5 cells/mL. […] All subsequent liquid additions were performed using a BIORAPTR (FRD; Beckman Coulter). Next, 5 μL of cell suspension was added and incubated for 20 min. at 37° C. and 5% CO2 in a humidified plastic tray.
The levels of cAMP were detected using the CisBio kit following the manufacturer's instructions: cAMP-d2 vial was reconstituted with distilled water and then diluted accordingly with conjugate & lysis buffer. 5 µL of cAMP-d2 working solution was added to all of the wells of the assay plate. cAMP-Cryptate vial was reconstituted with distilled water and then diluted accordingly with conjugate & lysis buffer. 5 µL of cAMP-Cryptate working solution were added to the assay plate. The assay plate was shaken for 3 minutes and incubated at room temperature for 45 minutes, then read on Perkin Elmer Envision. cAMP standard curve and fit data were plotted using a 4 parameter dose response curve fitting algorithm to fit curve. […] After normalization to treated and untreated controls, the percent effect of signal at each compound concentration was calculated. The plot of percent effect versus the log of compound concentration was fit with a 4-parameter concentration response equation to calculate EC50 values.
The EC50 is the concentration at which the effect is half-maximal. As to `O=S(=O)(Nc1ccccc1-c1ccc2c(c1)OCC(Cc1cc3ccccc3s1)C2O)C(F)(F)F` (racemic) [Example 34, N-(2-((3,4-rac-trans)-3-(benzo[b]thiophen-2-ylmethyl)-4-hydroxychroman-7-yl)phenyl)-1,1,1-trifluoromethanesulfonamide], the concentration for a half-maximal effect (EC50) worked out at 44 nM.

With `Cn1nc(-c2ccccc2)cc1C[C@H]1COc2cc(-c3ccccc3NS(=O)(=O)C(F)(F)F)ccc2[C@@H]1O` (racemic) [Example 35, 1,1,1-Trifluoro-N-(2-((rac-trans)-4-hydroxy-3-((1-methyl-3-phenyl-1H-pyrazol-5-yl)methyl)chroman-7-yl)phenyl)methanesulfonamide], the EC50 came to 824 nM.

`O=S(=O)(Nc1ccccc1-c1ccc2c(c1)OC[C@@H](Cc1ccc(-c3ccccc3)cn1)[C@@H]2O)C(F)(F)F` (racemic) [Example 38, 1,1,1-Trifluoro-N-(2-{(rac-trans)-4-hydroxy-3-((5-phenylpyridin-2-yl)methyl)chroman-7-yl)phenyl)methanesulfonamide]: the EC50 came to 4 nM.

Turning to `O=S(=O)(Nc1ccccc1-c1ccc2c(c1)OC[C@@H](Cc1cnc(-c3ccccc3)s1)[C@@H]2O)C(F)(F)F` (racemic) [Example 41, 1,1,1-Trifluoro-N-(2-((rac-trans)-4-hydroxy-3-((2-phenylthiazol-5-yl)methyl)chroman-7-yl)phenyl)methanesulfonamide], the EC50 is 225 nM.

In the case of `O=S(=O)(Nc1nccnc1-c1ccc2c(c1)OCC(Cc1ccccn1)C2O)C(F)(F)F` (racemic) [Example 74, 1,1,1-Trifluoro-N-(3-((3,4-rac-trans)-4-hydroxy-3-(pyridin-2-ylmethyl)chroman-7-yl)pyrazin-2-yl)methanesulfonamide], the EC50 came to 4050 nM.

In the case of `O=S(=O)(Nc1ccccc1-c1ccc2c(c1)OC[C@@H](Cc1nnc(-c3ccc(F)cc3)o1)[C@@H]2O)C(F)(F)F` (relative stereo) [Example 44, 1,1,1-Trifluoro-N-(2-((3,4-trans)-3-((5-(4-fluorophenyl)-1,3,4-oxadiazol-2-yl)methyl)-4-hydroxychroman-7-yl)phenyl)methanesulfonamide], the EC50 came out at 1550 nM.

With `CC(C)(C)c1nc(C[C@@H]2COc3cc(-c4ccccc4NS(=O)(=O)C(F)(F)F)ccc3[C@H]2O)cs1` (relative stereo) [Example 45, N-(2-((3,4-trans)-3-((2-(tert-butyl)thiazol-4-yl)methyl)-4-hydroxychroman-7-yl)phenyl)-1,1,1-trifluoromethanesulfonamide], the concentration giving a half-maximal response (EC50) amounted to 1430 nM.

For the compound `O=S(=O)(Nc1ccccc1-c1ccc2c(c1)OC[C@@H](Cc1ccncc1)[C@@H]2O)C(F)(F)F` (single isomer, unassigned) [Example 25, 1,1,1-trifluoro-N-{2-[(3R,4S or 3S,4R)-4-hydroxy-3-(pyridin-4-ylmethyl)-3,4-dihydro-2H-chromen-7-yl]phenyl}methanesulfonamide], the EC50 came out at 412 nM.

As for `O=S(=O)(Nc1ccccc1-c1ccc2c(c1)OC[C@H](Cc1ccncc1)[C@H]2O)C(F)(F)F` (single isomer, unassigned) [Example 26, 1,1,1-trifluoro-N-{2-[(3S,4R or 3R,4S)-4-hydroxy-3-(pyridin-4-ylmethyl)-3,4-dihydro-2H-chromen-7-yl]phenyl}methanesulfonamide], the concentration giving a half-maximal response (EC50) turned out to be 121 nM.

On to `Cn1nc(-c2ccccc2)cc1C[C@H]1COc2cc(-c3ccccc3NS(=O)(=O)C(F)(F)F)ccc2[C@@H]1O` (single isomer, unassigned) [Example 36, 1,1,1-Trifluoro-N-(2-((3S,4R or 3R,4S)-4-hydroxy-3-((1-methyl-3-phenyl-1H-pyrazol-5-yl)methyl)chroman-7-yl)phenyl)methanesulfonamide], for which the concentration for a half-maximal effect (EC50) came out at 737 nM.

As to `Cn1nc(-c2ccccc2)cc1C[C@@H]1COc2cc(-c3ccccc3NS(=O)(=O)C(F)(F)F)ccc2[C@H]1O` (single isomer, unassigned) [Example 37, 1,1,1-Trifluoro-N-(2-((3R,4S or 3S,4R)-4-hydroxy-3-((1-methyl-3-phenyl-1H-pyrazol-5-yl)methyl)chroman-7-yl)phenyl)methanesulfonamide], the concentration for a half-maximal effect (EC50) turned out to be 754 nM.

Consider `O=S(=O)(Nc1ccccc1-c1ccc2c(c1)OC[C@H](Cc1ccc(-c3ccccc3)cn1)[C@H]2O)C(F)(F)F` (single isomer, unassigned) [Example 39, (2-((3S,4R or 3R,4S)-4-hydroxy-3-((5-phenylpyridin-2-yl)methyl)chroman-7-yl)phenyl)((trifluoromethyl)sulfonyl)amide], for which the EC50 came out at 1 nM.

For the compound `O=S(=O)(Nc1ccccc1-c1ccc2c(c1)OC[C@@H](Cc1ccc(-c3ccccc3)cn1)[C@@H]2O)C(F)(F)F` (single isomer, unassigned) [Example 40, (2-((3R,4S or 3S,4R)-4-hydroxy-3-((5-phenylpyridin-2-yl)methyl)chroman-7-yl)phenyl)((trifluoromethyl)sulfonyl)amide], the concentration giving a half-maximal response (EC50) worked out at 18 nM.

In the case of `O=S(=O)(Nc1ccccc1-c1ccc2c(c1)OC[C@@H](Cc1cnc(-c3ccccc3)s1)[C@@H]2O)C(F)(F)F` (single isomer, unassigned) [Example 42, 1,1,1-Trifluoro-N-(2-((3S,4R or 3R,4S)-4-hydroxy-3-((2-phenylthiazol-5-yl)methyl)chroman-7-yl)phenyl)methanesulfonamide], the half-maximal effective concentration (EC50) stood at 445 nM.

For `O=S(=O)(Nc1ccccc1-c1ccc2c(c1)OC[C@H](Cc1cnc(-c3ccccc3)s1)[C@H]2O)C(F)(F)F` (single isomer, unassigned) [Example 43, 1,1,1-Trifluoro-N-(2-((3R,4S or 3S,4R)-4-hydroxy-3-((2-phenylthiazol-5-yl)methyl)chroman-7-yl)phenyl)methanesulfonamide], the EC50 is 64 nM.

Regarding `CCn1ccc(C[C@H]2COc3cc(-c4ccccc4NS(=O)(=O)C(F)(F)F)ccc3[C@@H]2O)n1` (single isomer, unassigned) [Example 46, N-(2-((3S,4R or 3R,4S)-3-((1-ethyl-1H-pyrazol-3-yl)methyl)-4-hydroxychroman-7-yl)phenyl)-1,1,1-trifluoromethanesulfonamide], the concentration giving a half-maximal response (EC50) was 157 nM.

`CCn1ccc(C[C@@H]2COc3cc(-c4ccccc4NS(=O)(=O)C(F)(F)F)ccc3[C@H]2O)n1` (single isomer, unassigned) [Example 47, N-(2-((3R,4S or 3S,4R)-3-((1-ethyl-1H-pyrazol-3-yl)methyl)-4-hydroxychroman-7-yl)phenyl)-1,1,1-trifluoromethanesulfonamide]: the EC50 came to 1200 nM.

Regarding `O=S(=O)(Nc1ccccc1-c1ccc2c(c1)OC[C@H](Cc1cscn1)[C@H]2O)C(F)(F)F` (single isomer, unassigned) [Example 50, 1,1,1-trifluoro-N-{2-[(3R,4S or 3S,4R)-4-hydroxy-3-(1,3-thiazol-4-ylmethyl)-3,4-dihydro-2H-chromen-7-yl]phenyl}-methanesulfonamide], the concentration giving a half-maximal response (EC50) came out at 29 nM.

For `O=S(=O)(Nc1ccccc1-c1ccc2c(c1)OC[C@@H](Cc1cscn1)[C@@H]2O)C(F)(F)F` (single isomer, unassigned) [Example 51, 1,1,1-trifluoro-N-{2-[(3S,4R or 3R,4S)-4-hydroxy-3-(1,3-thiazol-4-ylmethyl)-3,4-dihydro-2H-chromen-7-yl]phenyl}-methanesulfonamide], the EC50 was determined as 808 nM.
